Experiments:
Type in all cases: biochemical
[1] = target: T1, NMDAR2B expressing HEK cell membranes (Homo sapiens, UniProt Q05586+Q13224); assay: NMDAR agonist assay, [3H]MK-801 binding, NMDAR2B; set-up: key to NMDAR2B B: log EC50: 0=−; ≥1×10^−9 M (e.g., −8)=+; <1×10^−9 M (e.g., −10)=++; settings: 50 μM glutamate; for EC50: read-out: NMDAR2B B: log EC50 (converted); for Emax: 0.25 h, read-out: NMDAR2B A: % maximal [3H]MK-801 binding relative to 1 mM glycine
T1 construct: expressed in transfected cells; host or cells: HEK cells (membrane extract)
Description: (§1) Assays were conducted as described by Moskal et al., “GLYX-13: a monoclonal antibody-derived peptide that acts as an N-methyl-D-aspartate receptor modulator,” Neuropharmacology, 49, 1077-87, 2005. These studies were designed to determine if the test compounds act to facilitate NMDAR activation in NMDAR2A, NMDAR2B, NMDAR2C or NMDAR2D expressing HEK cell membranes as measured by increases in [^3H]MK-801 binding.
(§2) In the assay, 300 μg of NMDAR expressing HEK cell membrane extract protein was preincubated for 15 minutes at 25° C. in the presence of saturating concentrations of glutamate (50 μM) and varying concentrations of test compound (1×10^−15 M-1×10^−7 M), or 1 mM glycine. Following the addition of 0.3 μCi of [^3H]MK-801 (22.5 Ci/mmol), reactions were again incubated for 15 minutes at 25° C. (nonequilibrium conditions). Bound and free [^3H]MK-801 were separated via rapid filtration using a Brandel apparatus.
(§3) In analyzing the data, the DPM (disintegrations per minute) of [^3H]MK-801 remaining on the filter were measured for each concentration of test compound or for 1 mM glycine. The DPM values for each concentration of a ligand (N=2) were averaged. The baseline value was determined from the best fit curve of the DPM values modeled using the GraphPad program and the log(agonist) vs. response(three parameters) algorithm was then subtracted from all points in the dataset. The % maximal [^3H]MK-801 binding was then calculated relative to that of 1 mM glycine: all baseline subtracted DPM values were divided by the average value for 1 mM glycine. The EC50 and % maximal activity were then obtained from the best fit curve of the % maximal [^3H]MK-801 binding data modelled using the GraphPad program and the log(agonist) vs. response(three parameters) algorithm.
(§4) The tables below summarize the results for the wild type NMDAR agonists NMDAR2A, NMDAR2B, NMDAR2C, and NMDAR2D, and whether the compound is not an agonist (−), is an agonist (+), or is a strong agonist (++), where column A is based on the % maximal [^3H]MK-801 binding relative to 1 mM glycine (−=0; <100%=+; and >100%=++); and column B is based on log EC50 values (0=−; ≥1×10^−9 M (e.g., −8)=+; and <1×10^−9 M (e.g., −10)=++).

[2] = target: T2, NMDAR2A expressing HEK cell membranes (Homo sapiens, UniProt Q05586+Q12879); assay: NMDAR agonist assay, [3H]MK-801 binding, NMDAR2A; set-up: key to NMDAR2A B: log EC50: 0=−; ≥1×10^−9 M (e.g., −8)=+; <1×10^−9 M (e.g., −10)=++; settings: 50 μM glutamate; for Emax: 0.25 h, read-out: NMDAR2A A: % maximal [3H]MK-801 binding relative to 1 mM glycine; for EC50: read-out: NMDAR2A B: log EC50 (converted)
T2 construct: expressed in transfected cells; host or cells: HEK cells (membrane extract)
Description: as §1, §2, §3, §4

[3] = target: T3, NMDAR2A expressing HEK cell membranes (Homo sapiens, UniProt Q12879); assay: NMDAR agonist assay, [3H]MK-801 binding, NMDAR2A; set-up: key to NMDAR2A B: log EC50: 0=−; ≥1×10^−9 M (e.g., −8)=+; <1×10^−9 M (e.g., −10)=++; settings: 50 μM glutamate
T3 construct: expressed in transfected cells; host or cells: HEK cells (membrane extract)
Description: as §1, §2, §3, §4

[4] = target: T4, NMDAR2B expressing HEK cell membranes (Homo sapiens, UniProt Q13224); assay: NMDAR agonist assay, [3H]MK-801 binding, NMDAR2B; set-up: key to NMDAR2B B: log EC50: 0=−; ≥1×10^−9 M (e.g., −8)=+; <1×10^−9 M (e.g., −10)=++; settings: 50 μM glutamate
T4 construct: expressed in transfected cells; host or cells: HEK cells (membrane extract)
Description: as §1, §2, §3, §4

T3 sequence (Q12879 23-1464, other chains not shown): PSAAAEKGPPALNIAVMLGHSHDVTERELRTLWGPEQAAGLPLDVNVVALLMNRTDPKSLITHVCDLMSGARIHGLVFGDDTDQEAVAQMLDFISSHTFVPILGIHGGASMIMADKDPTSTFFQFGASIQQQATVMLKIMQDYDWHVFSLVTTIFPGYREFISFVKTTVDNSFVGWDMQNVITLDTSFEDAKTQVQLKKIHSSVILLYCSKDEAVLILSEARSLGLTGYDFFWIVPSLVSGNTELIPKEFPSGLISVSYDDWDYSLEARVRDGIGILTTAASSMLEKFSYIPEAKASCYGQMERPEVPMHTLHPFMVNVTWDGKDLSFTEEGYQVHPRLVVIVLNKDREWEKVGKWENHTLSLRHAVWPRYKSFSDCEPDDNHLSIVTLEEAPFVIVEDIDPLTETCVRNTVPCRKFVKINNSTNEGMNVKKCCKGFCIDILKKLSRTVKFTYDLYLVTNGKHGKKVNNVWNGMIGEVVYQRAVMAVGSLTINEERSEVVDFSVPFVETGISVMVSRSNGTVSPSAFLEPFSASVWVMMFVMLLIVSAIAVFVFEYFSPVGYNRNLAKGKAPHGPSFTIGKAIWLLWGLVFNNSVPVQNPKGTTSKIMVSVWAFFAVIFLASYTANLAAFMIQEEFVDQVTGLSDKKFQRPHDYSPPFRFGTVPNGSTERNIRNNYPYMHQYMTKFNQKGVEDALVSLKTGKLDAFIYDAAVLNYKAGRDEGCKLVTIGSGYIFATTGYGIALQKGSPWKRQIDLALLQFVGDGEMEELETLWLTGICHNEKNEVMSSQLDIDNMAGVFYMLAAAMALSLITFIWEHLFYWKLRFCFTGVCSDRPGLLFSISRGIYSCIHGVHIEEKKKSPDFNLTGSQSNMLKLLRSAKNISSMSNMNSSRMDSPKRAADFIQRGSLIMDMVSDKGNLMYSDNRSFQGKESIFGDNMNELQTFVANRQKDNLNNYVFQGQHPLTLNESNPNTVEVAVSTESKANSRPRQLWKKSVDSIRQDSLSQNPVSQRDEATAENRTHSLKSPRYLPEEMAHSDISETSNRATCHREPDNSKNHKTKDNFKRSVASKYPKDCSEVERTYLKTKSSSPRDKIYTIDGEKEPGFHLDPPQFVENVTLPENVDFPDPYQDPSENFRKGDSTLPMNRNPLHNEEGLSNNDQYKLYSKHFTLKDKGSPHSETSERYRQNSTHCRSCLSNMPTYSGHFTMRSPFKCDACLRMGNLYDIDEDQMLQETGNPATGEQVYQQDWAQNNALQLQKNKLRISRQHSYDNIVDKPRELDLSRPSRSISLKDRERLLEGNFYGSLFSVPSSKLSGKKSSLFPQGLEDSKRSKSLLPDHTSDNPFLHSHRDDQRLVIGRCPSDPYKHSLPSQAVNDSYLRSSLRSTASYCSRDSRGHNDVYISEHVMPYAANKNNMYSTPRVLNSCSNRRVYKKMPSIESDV
T2 sequence (Q12879 23-1464, other chains not shown): as above
T4 sequence (Q13224 27-1484, other chains not shown): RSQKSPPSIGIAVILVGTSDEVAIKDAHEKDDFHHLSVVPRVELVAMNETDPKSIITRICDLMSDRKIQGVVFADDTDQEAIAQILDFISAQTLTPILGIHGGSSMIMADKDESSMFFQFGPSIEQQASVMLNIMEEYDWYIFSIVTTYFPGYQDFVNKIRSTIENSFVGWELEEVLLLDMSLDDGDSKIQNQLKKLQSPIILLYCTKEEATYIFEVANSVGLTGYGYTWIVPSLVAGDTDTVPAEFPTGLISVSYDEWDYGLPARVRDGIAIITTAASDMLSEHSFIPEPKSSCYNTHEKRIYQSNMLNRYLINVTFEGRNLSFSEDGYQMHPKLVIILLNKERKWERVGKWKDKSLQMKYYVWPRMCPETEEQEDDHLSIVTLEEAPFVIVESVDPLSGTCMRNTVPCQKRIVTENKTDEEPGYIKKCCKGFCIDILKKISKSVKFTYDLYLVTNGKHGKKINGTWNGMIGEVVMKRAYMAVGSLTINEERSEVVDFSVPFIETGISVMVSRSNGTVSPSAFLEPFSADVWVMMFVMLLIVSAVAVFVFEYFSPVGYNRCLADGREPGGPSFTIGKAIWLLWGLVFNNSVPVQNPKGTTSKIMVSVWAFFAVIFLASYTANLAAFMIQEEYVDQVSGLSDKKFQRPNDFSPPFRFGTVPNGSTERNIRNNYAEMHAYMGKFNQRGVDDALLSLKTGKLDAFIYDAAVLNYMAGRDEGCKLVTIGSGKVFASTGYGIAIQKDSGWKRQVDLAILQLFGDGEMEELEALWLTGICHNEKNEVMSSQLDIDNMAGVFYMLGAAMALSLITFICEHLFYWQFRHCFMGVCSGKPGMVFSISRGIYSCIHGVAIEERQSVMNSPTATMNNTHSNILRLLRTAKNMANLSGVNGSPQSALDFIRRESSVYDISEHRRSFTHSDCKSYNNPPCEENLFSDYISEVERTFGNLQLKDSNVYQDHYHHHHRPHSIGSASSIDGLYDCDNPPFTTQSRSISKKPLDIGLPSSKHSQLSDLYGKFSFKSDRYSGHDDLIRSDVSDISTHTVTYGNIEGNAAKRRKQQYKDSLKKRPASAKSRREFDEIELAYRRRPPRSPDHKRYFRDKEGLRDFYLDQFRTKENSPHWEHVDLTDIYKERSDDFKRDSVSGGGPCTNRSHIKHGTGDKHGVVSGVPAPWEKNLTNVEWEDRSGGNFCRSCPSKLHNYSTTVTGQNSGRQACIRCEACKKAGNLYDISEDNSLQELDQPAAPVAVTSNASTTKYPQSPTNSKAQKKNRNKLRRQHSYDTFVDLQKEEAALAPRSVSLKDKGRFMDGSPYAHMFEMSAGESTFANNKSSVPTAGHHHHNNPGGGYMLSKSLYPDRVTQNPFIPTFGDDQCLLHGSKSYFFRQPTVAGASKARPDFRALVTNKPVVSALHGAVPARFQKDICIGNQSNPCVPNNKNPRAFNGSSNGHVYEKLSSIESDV

SMILES	EC50 [1] [nM]	Emax [1] [%]	Emax [2] [%]	NMDAR2A B: log EC50 [3]	NMDAR2A A: % maximal [3H]MK-801 binding relative to 1 mM glycine [3]	EC50 [2] [nM]	NMDAR2B A: % maximal [3H]MK-801 binding relative to 1 mM glycine [4]	NMDAR2B B: log EC50 [4]
CNC(=O)[C@H]([C@@H](C)O)N1CC2(CCNC(=O)C2)C1=O (single isomer, unassigned) [DB]	< 1	> 100	0	−				
NC(=O)CN1CC2(CCNC(=O)C2)C1=O (single isomer, unassigned) [DC, 2-(1,6-dioxo-2,7-diazaspiro[3.5]nonan-2-yl)acetamide]	< 1	< 100			+ (<100%=+)	< 1		
CC1CC(=O)N(c2ccc(F)cc2)C12CN(Cc1ccccc1)C2=O (single isomer, unassigned) [BX, 2-benzyl-5-(4-fluorophenyl)-8-methyl-2,5-diazaspiro[3.4]octane-1,6-dione]	< 1	< 100	0	−				
CCN1CCC2(CC1=O)CN(Cc1ccccc1)C2=O (single isomer, unassigned) [CZ, 2-benzyl-7-ethyl-2,7-diazaspiro[3.5]nonane-1,6-dione]						≥ 1		−
CC1C(O)C(=O)N(C)C12CN(Cc1ccccc1)C2=O (single isomer, unassigned) [DN, 2-benzyl-7-hydroxy-5,8-dimethyl-2,5-diazaspiro[3.4]octane-1,6-dione]						< 1		−
CC1CC(=O)N(C)C12CN(CC(N)=O)C2=O (single isomer, unassigned) [DI, 2-(5,8-dimethyl-1,6-dioxo-2,5-diazaspiro[3.4]octan-2-yl)acetamide]	< 1	< 100			+ (<100%=+)	< 1		

Second part, the compound after the results:

EC50 [1] [nM]	Emax [1] [%]	Emax [2] [%]	NMDAR2A B: log EC50 [3]	NMDAR2A A: % maximal [3H]MK-801 binding relative to 1 mM glycine [3]	EC50 [2] [nM]	NMDAR2B A: % maximal [3H]MK-801 binding relative to 1 mM glycine [4]	NMDAR2B B: log EC50 [4]	SMILES
< 1	< 100	0	−					CC1CC(=O)N(c2ccc(F)cc2)C12CN(CC(N)=O)C2=O (single isomer, unassigned) [CF, 2-(5-(4-fluorophenyl)-8-methyl-1,6-dioxo-2,5-diazaspiro[3.4]octan-2-yl)acetamide]
< 1	< 100		−	− (−=0)				O=C1CC2(CCN1)CN(Cc1ccccc1)C2=O (single isomer, unassigned) [CU, 2-benzyl-2,7-diazaspiro[3.5]nonane-1,6-dione]
		< 100			< 1	− (−=0)	−	COc1ccc(CN2CC3(CCNC(=S)C3)C2=S)cc1 (single isomer, unassigned) [CO, 2-(4-methoxybenzyl)-2,7-diazaspiro[3.5]nonane-1,6-dithione]
< 1	< 100	< 100			< 1			COc1ccc(CN2CC3(CCNC(=S)C3)C2=O)cc1 (single isomer, unassigned) [CN, 2-(4-methoxybenzyl)-6-thioxo-2,7-diazaspiro[3.5]nonan-1-one]
< 1	< 100	0	−					CC1C(N)C(=O)N(C)C12CN(Cc1ccccc1)C2=O (single isomer, unassigned) [CG, 7-amino-2-benzyl-5,8-dimethyl-2,5-diazaspiro[3.4]octane-1,6-dione]
< 1	> 100	< 100			< 1			CN1CCC2(CC1=O)CN(Cc1ccccc1)C2=O (single isomer, unassigned) [CW, 2-benzyl-7-methyl-2,7-diazaspiro[3.5]nonane-1,6-dione]
< 1	< 100	< 100			< 1			CC(C)CN1CC2(CCNC(=O)C2)C1=O (single isomer, unassigned) [DE, 2-isobutyl-2,7-diazaspiro[3.5]nonane-1,6-dione]
		< 100			< 1	− (−=0)	−	CN1CC2(CCNC(=O)C2)C1=O (single isomer, unassigned) [DG, 2-methyl-2,7-diazaspiro[3.5]nonane-1,6-dione]

Source: US12084444B2, “Spiro-lactam NMDA modulators and methods of using same” (Tenacia Biotechnology (Hong Kong) Co., Limited, priority 2016, dated 2024)
